Source: US5688764A, “Insecticidal peptides from spider venom” (NPS Pharmaceuticals, Inc., priority 1995, dated 1997)

B1: AaIT: scorpion peptide insect toxin expressed from a recombinant baculovirus (McCutchen et al. 1991) (protein, UniProt P01497 19-88, looked up)
Beta-insect excitatory toxin 1: KKNGYAVDSSGKAPECLLSNYCNNECTKVHYADKGYCCLLSCYCFGLNDDKKVLEISDTRKSYCDTTIIN

Experiments:
[1] = test system: tobacco budworm (TBW), Heliothis virescens; test: Bioassay: injection into the abdomen of fifth instar tobacco budworm larvae, paralysis; format: in vivo; conditions: probit regression
Method: Whole venom was isolated by known techniques from the spider, Calisoga. The whole venom, or peptides purified therefrom, were dissolved in sterile buffered physiological saline. For testing and characterization purposes, venom and toxins were administered by injection into the abdomen of fifth instar larvae of the tobacco budworm (TBW), Heliothis virescens. Control larvae were injected with an equal volume of saline. After treatment, the insects were placed individually in Petri dishes, with food, and observed.
Insects that could not right themselves within thirty seconds of being placed on their backs or side were considered paralyzed. Fifty percent paralytic dose (PD50) values were calculated by probit regression (see Example 2). Raymond, M., Ser. Ent. med et Parasitol, 22(2), 117-121 (1985).
Whole venom from a spider, Calisoga sp. (Aranae: Nemesiidae), was dissolved in the desired volume of sterile, buffered physiological saline. Samples were administered by injection into the abdomen of the fifth instar larvae of the tobacco budworm, Heliothis virescens, as previously described. Control larvae were injected with equal volumes of saline.

Balb-C mice = test: Mammalian toxicity by intraperitoneal injection in mice; format: in vivo; conditions: male Balb-C mice, 50 micrograms per mouse (~2 mg/kg), up to 120 hours after treatment
Method: Peptide A was tested for mammalian toxicity by intraperitoneal injection in mice. Two male Balb-C mice (~25 grams each) were injected with peptide A in physiological saline, at a dose of 50 micrograms per mouse (~2 mg/kg). Two control mice were injected with an equal volume of saline carrier. The mice were observed continuously for 1.5 hours, and periodically thereafter.

[2] = test system: Heliothis virescens larvae; conditions: toxin secreted in the course of infection by recombinant baculovirus; natural host; cited from earlier work
Manduca sexta larvae = conditions: toxin secreted in the course of infection by recombinant baculovirus; unnatural host; cited from earlier work

Molecule | PD50 95% confidence interval [1] [µg/g] | PD50 (fifty percent paralytic dose) [1] [µg/g] | mammalian toxicity: effects observed (Balb-C mice) | effect on larvae (paralysis) [2] | effect on larvae (paralysis) (Manduca sexta larvae)
peptide A (CISARYPCSNSKDCCSGNCGTFWTCYIRKDPCSKECLAP) | 1.70 to 3.22 | 2.37 | No effects were noted | – | –
peptide B (CISARYPCSNSKDCCSGNCGTFWTCFIRKDPCSKECLAP) | 1.72 to 8.0 | 3.7 | – | – | –
B1 | – | – | – | caused paralysis | caused paralysis
